The target of series [1] is hERG potassium channels (Homo sapiens, UniProt Q12809). The experiment in a line: cell-based. The protocol:
The effects of Compound 1 on the hERG potassium channels were evaluated using the automated patch clamp method (SyncroPatch® 384PE, Nanion Technologies GmbH, Munich, Germany).
CHO cells stably expressing hERG potassium channels (Sophion Bioscience, Inc. Bedford, MA, USA) were used for this test. The cells were cultured in a humidified and air-controlled (5% CO2) incubator at 37° C. The CHO hERG cell culture medium was 500 mL Ham's F-12 medium (Catalog No. 31765035, Invitrogen, Waltham, MA, USA), 50 mL HyClone™ Fetal Bovine Serum (Catalog No. SV30087.03, Cytiva, Marlborough, MA, USA), 1 mL Geneticin™ (G418 Sulfate, 50 mg/mL)) (Catalog No. 10131027, Invitrogen, Waltham, MA, USA), and 1 mL Hygromycin B (50 mg/mL) (Catalog No. 10687010, Invitrogen, Waltham, MA, USA).
The CHO cells were at least two days after plating and more than 75% confluent were used. Before testing, cells were harvested using TrypLE™ and resuspended in the physiological solution at the room temperature.
The solutions in Table 9 were used for the electrophysiological recordings. The physiological solution and external solution were prepared at least one month prior to the experiment. The intracellular solution was prepared in batches, aliquoted, and stored at 4° C. until use.
The stock solutions were further diluted into external solution to achieve final concentrations for testing. A visual check for precipitation was conducted before testing. Final DMSO concentration in external solution was not more than 0.30% for the test compounds.
The voltage command protocol started from a holding potential of −80 mV. Then, the voltage was first stepped to −50 mV for 80 ms for leak subtraction, and then stepped to +20 mV for 4,800 ms to open hERG channels. After that, the voltage was stepped back down to −50 mV for 5,000 ms, causing a “rebound” or tail current, which was measured and collected for data analysis. Finally, the voltage was stepped back to the holding potential of −80 mV for 1,000 ms. This voltage command protocol was repeated every 20,000 msec, and performed continuously during the test of vehicle control and test compounds.
This SyncroPatch hERG assay was conducted at room temperature. The Setup, Prime Chip, Catch and Seal Cells, Amplifier Settings, Voltage and Application Protocols were established with […] (Nanion Technologies GmbH, Munich, Germany). One addition of 40 μL of vehicle was applied, followed by a baseline period of 300 s. Then 40 μL doses of test compounds were added. The exposure of test compound at each concentration was no less than 300 s. The recording for the whole process passed quality control or the well was abandoned and the compound was retested, all automatically set by PatchControl (Nanion Technologies, Munich, Germany). Five concentrations (0.30 μM, 1.00 μM, 3.00 μM, 10.00 μM and 30.00 μM) were tested for each compound. A minimum of 2 replicates per concentration were obtained.
Data analysis was carried out using DataControl® (Nanion Technologies GmbH, Munich, Germany), EXCEL 2013 (Microsoft Corporation, Redmond, WA, USA) and GraphPad Prism 5.0 (GraphPad Software, LLC, San Diego, CA, USA).
Within each recording well, percent of control values were calculated for each test compound concentration current response based on peak current in presence of reference control (current response/peak current)×100%. The Dose-Response curves were fit to the standard Hill equation as shown below: […]
where X is the logarithm of concentration, Ipost cpd/Ipre cpd is the normalized peak current amplitude, Top is 1, and Bottom is equal to 0. Curve-fitting and IC50 calculations were performed by GraphPad Prism 5.0.

Series [2] in a line: Crystallization from hot saturated solutions by slow cooling. In kind it is physicochemical. Particulars: for Comments / XRPD: hot saturated solution. The protocol: Samples with no precipitates were put in −20° C. freezer for crystallization. Precipitates were collected by centrifuged. Solid parts (wet cakes) were investigated by XRPD.
Series [3] relates to G402 tumor xenografts. The series is described as follows: Antitumor activity in G402 malignant rhabdoid tumor xenograft model. In kind it is in vivo, mouse. Particulars: for TGI: day 21. Here is the method: To evaluate the efficacy potential of Compound 1 in the malignant rhabdoid tumor setting, BALB/c nude female mice bearing G402 tumor xenografts (WuXi AppTec, Shanghai, China) were treated with a daily regimen of escalating doses of Compound 1 (10 mg/kg, 30 mg/kg, or 50 mg/kg) or vehicle via oral gavage for 21 days (FIG. 3). Compound 1 was tolerated in this study with all mice except two losing no greater than 8% body weight (FIG. 4). […] One mouse in the 50 mg/kg QD group also experienced accumulating body weight loss to end the study at −17.3% but was never taken off study. […] TGI and One-way ANOVA analyses were performed on day 21, the last day all animals were on study.
The G402 tumor cells were maintained in vitro in McCoy's 5a medium supplemented with 10% fetal bovine serum and 1% Penicillin-Streptomycin at 37° C. in an atmosphere of 5% CO2 in air. The tumor cells were routinely subcultured twice weekly. The cells growing in an exponential growth phase were harvested and counted for tumor inoculation.
Each mouse was inoculated subcutaneously at the right flank with G402 cells (10×10^6) in 0.2 mL of PBS supplemented with Matrigel (PBS:Matrigel=1:1) for tumor development. For efficacy part, the treatments were started when the average tumor volume reaches 175 mm^3.

Where only a bound is given, the exact number is not on record here.

Chain of hERG potassium channels (Q12809 whole entry): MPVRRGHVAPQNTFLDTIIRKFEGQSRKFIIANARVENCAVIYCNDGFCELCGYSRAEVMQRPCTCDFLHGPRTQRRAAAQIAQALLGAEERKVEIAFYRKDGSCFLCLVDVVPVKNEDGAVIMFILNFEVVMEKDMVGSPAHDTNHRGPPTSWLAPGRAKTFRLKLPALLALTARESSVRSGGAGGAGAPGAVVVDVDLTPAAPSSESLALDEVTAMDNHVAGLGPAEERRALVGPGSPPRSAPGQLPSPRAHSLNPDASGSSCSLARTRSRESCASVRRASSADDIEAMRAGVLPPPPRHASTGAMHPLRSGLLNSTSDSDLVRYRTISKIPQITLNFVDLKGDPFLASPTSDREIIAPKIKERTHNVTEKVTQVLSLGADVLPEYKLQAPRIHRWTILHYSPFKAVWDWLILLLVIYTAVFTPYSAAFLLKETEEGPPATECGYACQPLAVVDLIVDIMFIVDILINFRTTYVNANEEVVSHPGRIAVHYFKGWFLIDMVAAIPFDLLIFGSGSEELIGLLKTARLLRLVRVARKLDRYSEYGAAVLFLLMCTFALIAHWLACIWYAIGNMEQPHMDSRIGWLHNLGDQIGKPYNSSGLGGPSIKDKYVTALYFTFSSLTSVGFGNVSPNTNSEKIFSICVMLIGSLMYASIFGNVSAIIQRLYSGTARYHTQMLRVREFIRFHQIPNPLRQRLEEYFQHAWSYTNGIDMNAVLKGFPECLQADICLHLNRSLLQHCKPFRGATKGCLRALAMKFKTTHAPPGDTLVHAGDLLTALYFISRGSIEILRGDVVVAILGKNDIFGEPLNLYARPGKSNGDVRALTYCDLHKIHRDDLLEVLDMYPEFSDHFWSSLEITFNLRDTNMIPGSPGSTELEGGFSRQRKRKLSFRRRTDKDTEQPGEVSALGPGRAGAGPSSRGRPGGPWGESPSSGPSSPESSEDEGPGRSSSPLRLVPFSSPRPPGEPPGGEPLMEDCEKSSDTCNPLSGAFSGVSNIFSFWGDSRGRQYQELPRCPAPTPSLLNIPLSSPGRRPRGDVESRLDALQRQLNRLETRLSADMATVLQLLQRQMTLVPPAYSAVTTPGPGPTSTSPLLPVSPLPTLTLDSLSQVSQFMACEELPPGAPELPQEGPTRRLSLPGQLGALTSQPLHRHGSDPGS

In series [1], `COc1cc(-c2cn(C)c(=O)c(C)c2C)cc(OC)c1CN1CC[C@H](N2CCN(c3ccc(N[C@H]4CCC(=O)NC4=O)cc3F)CC2)C(F)(F)C1` [Compound 1, (S)-3-((4-(4-((S)-1-(2,6-dimethoxy-4-(1,4,5-trimethyl-6-oxo-1,6-dihydropyridin-3-yl)benzyl)-3,3-difluoropiperidin-4-yl)piperazin-1-yl)-3-fluorophenyl)amino)-piperidine-2,6-dione] displayed an IC50 of 2910 nM. Also, the HillSlope in series [1] (human) is listed as 1.26. Moreover, the “POI (%)” value is recorded as 12.42% in series [1] (human, 0.3 µM); 14.61% in series [1] (human, 1 µM); 22.59% in series [1] (human, 3 µM); 19.49% in series [1] (human, 10 µM); 21.92% in series [1] (human, 30 µM). For the same compound, the “Comments: form after seeding” value in series [2] (2-MeTHF, add Pattern G as seeds, slurry for 5 days) is “Pattern G”. The Comments entry in series [2] (2-MeTHF), in series [2] (Ethyl acetate) and in series [2] (Methanol) was “Clear solution” each time. The XRPD result in series [2] (Acetone) is “Pattern B”; in series [2] (Ethanol), “Pattern F”. Moreover, the “body weight loss, one mouse” value in series [3] (10 mg/kg QD group) was “over 15%”. Further, the TGI in series [3] (30 mg/kg/day oral) is on record as 73%; in series [3] (50 mg/kg/day oral), 78%. Also, the “body weight change at end of study, one mouse” value in series [3] (50 mg/kg QD group) is recorded as −17.3%. Moreover, the “body weight loss, all mice except two” value in series [3] (10, 30 or 50 mg/kg daily for 21 days) was at most 8%.

Values taken from patent US20240245677A1, “SELECTED COMPOUNDS FOR TARGETED DEGRADATION OF BRD9” (C4 THERAPEUTICS, INC., priority 2021, published 2024).
